Results on two compounds are retold here after patent publication US6998403B2, “Benzoindoline compounds” (Les Laboratoires Servier, priority 2003, dated 2006).

Experiment [1] has as its system extracellular concentrations of NA, DA and ACh in the frontal cortex. Put plainly: Measurement of neurotransmitters in the frontal cortex of rats (microdialysis, HPLC). In kind it is in vivo, rat. The conditions noted are these: 10.0 mg/kg s.c.; for ACh, percentage area beneath the curve (%AbC ± S.E.M.): acetylcholine in frontal cortex dialysates of conscious rats; for ACh, percentage area beneath the curve (%AbC ± S.E.M.) / DA, percentage area beneath the curve (%AbC ± S.E.M.) / NA, percentage area beneath the curve (%AbC ± S.E.M.): 20 min. to 120 min. after administration; for DA, percentage area beneath the curve (%AbC ± S.E.M.): dopamine in frontal cortex dialysates of conscious rats; for change in extracellular concentration of ACh (in words) / change in extracellular concentration of DA (in words) / change in extracellular concentration of NA (in words): frontal cortex dialysates of conscious rats; for NA, percentage area beneath the curve (%AbC ± S.E.M.): noradrenaline in frontal cortex dialysates of conscious rats. How it is done:
Measurement of Neurotransmitters in the Frontal Cortex of Rats
The surgery is performed under pentobarbital-induced anaesthesia (60 mg/kg, i.p.). Male Wistar rats, 200–220 g (Iffa Credo, Arbresle, France), are placed in a Kopf stereotaxic device and a cannula guide (CMAMicrodialyse AB, Stockholm, Sweden) is implanted in the frontal cortex at the coordinates (in mm): anteroposterior: +2.2, lateral: ±0.6, ventral deviation: −0.2. The rats are placed in separate cages and recover from the anaesthesia over 5 days. On the day of the dialysis, a Cuprophan CMA/11 probe (length: 4 mm; ext. dia.: 0.24 mm) is introduced into the guide and perfused at 1 μl/min. with a solution of NaCl: 147.2 mM; KCl: 4 mM; CaCl2: 2.3 mM adjusted to pH 7.3 with a phosphate buffer. Two hours after implantation, samples of dialysate are collected every 20 minutes for 4 hours. Three baseline samples are collected before administration of the drug.
Noradrenaline (NA) and dopamine (DA) are measured as follows: 20 μl of dialysate sample are diluted with 20 μl of mobile phase (NaH2PO4: 75 mM, EDTA: 20 μM, sodium decanesulphonate: 1 mM, methanol: 17.5%, triethylamine: 0.01%, pH: 5.70) and 33 μl are analysed by HPLC using, for separation, an inverse-phase column (Hypersil C 18, 150×4.6 mm; particle size 5 μm) thermostatically controlled at 43° C. and, for quantification, a coulometric detector (ESA5014, Coulochem II, ESA, Chelmsford, USA). The potential of the first electrode is −90 mV (reduction) and that of the second +280 mV (oxidation). The mobile phase flow rate is 2 ml/min. The sensitivity limit for NA and DA is 0.2 pg.
Acetylcholine (ACh) is measured and quantified in the absence of acetylcholine esterase (AChE) inhibitor 20 μl of dialysate sample are collected in 10 μl of 0.01% acetic acid. 20 μl aliquots are analysed by HPLC. The mobile phase is composed of Na2HPO4: 50 mM and ProClin: 0.5% (BAS, Congleton, UK), pH 8.2. The stationary phase is composed of a cation-exchange column (Sepstik, 530×1.0 mm, particle size 10 μm, BAS), a pre-column (choline oxidase/catalase enzymatic reactor, 55×1 mm, BAS) and a post-column (choline oxidase/AChE enzymatic reactor, 50×1 mm, BAS). The system is maintained at 35° C. Quantification is carried out by means of an amperometric detector (LC-4B, BAS). A layer of peroxidase-redox polymer is deposited on the vitreous carbon working electrode (MF2098, BAS). The potential of that electrode is +100 mV relative to the Ag/AgCl reference electrode. The mobile phase flow rate is 0.14 ml/min. The sensitivity limit for ACh is 0.1 pg.
The levels of NA, DA and ACh are expressed as the percentage area beneath the curve (% AbC) ±S.E.M. of times 20 min. to 120 min. after administration of the drug. The effects of the compound of Example 1 are compared (ANOVA) with those obtained in animals treated with the solvent or with 6-chloro-5-fluoro-N-[4-methoxy-3-(4-methyl-1-piperazinyl)phenyl]-1-indoline-carboxamide.

For the next experiment, the target named is T1, 5-HT2C receptors (Homo sapiens, UniProt P28335).
T1 sequence (P28335 33-458): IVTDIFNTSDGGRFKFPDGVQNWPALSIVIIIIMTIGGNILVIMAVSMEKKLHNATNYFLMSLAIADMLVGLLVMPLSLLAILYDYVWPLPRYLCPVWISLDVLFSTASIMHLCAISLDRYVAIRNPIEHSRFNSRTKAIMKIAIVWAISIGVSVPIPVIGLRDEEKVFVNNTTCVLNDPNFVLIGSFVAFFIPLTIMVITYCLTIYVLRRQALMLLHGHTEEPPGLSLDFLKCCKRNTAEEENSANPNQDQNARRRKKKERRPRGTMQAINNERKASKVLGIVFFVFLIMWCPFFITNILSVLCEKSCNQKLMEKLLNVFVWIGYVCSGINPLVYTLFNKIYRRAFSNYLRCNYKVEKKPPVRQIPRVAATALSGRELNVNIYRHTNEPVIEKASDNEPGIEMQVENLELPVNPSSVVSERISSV
Put plainly: Determination of the affinity for 5-HT2C receptors (competition with [3H]-mesulergine). In kind it is binding. To be noted: 22° C., pH=7.7, IC50 converted into pKi. The procedure: The non-specific fraction is defined in the presence of 1 μM mianserin, the latter also being the reference product for each experiment. At the end of the incubation period, the medium is filtered through GF/B-Unifilter filters pre-treated with PEI (0.1%), followed by washing three times with the incubation buffer. The radioactivity retained on the filters is determined by liquid scintillation counting. The binding isotherms are analysed by non-linear regression in order to determine the IC50 values. They are converted into pKi (where Ki is the dissociation constant).

Marks after values point to notes of the source that are not given here.

For orientation: Ki means a dissociation constant, usually derived from enzyme kinetics or from competition with a known ligand. Turning to `COc1ccc(NC(=O)N2CCc3c2ccc2ccccc32)cc1N1CCN(C)CC1.Cl` [Example 1, N-[4-Methoxy-3-(4-methyl-1-piperazinyl)phenyl]-1,2-dihydro-3H-benzo[e]indole-3-carboxamide Hydrochloride], in experiment [1], the “ACh, percentage area beneath the curve (%AbC ± S.E.M.)” value is on record as “+107.7 ± 13.5^a,b %AbC”; the “DA, percentage area beneath the curve (%AbC ± S.E.M.)” value was “+52.9 ± 6.6^a %AbC”; the “change in extracellular concentration of ACh (in words)” value is “substantial increase”; the “change in extracellular concentration of DA (in words)” value is “substantial increase”. In addition, in experiment [1], the “change in extracellular concentration of NA (in words)” value is recorded as “substantial increase” and the “NA, percentage area beneath the curve (%AbC ± S.E.M.)” value is recorded as “+105.4 ± 7.3^a,b %AbC”. On 5-HT2C receptors, the affinity corresponds to a Ki of 6.31 nM.
For the compound `COc1ccc(NC(=O)N2CCc3cc(F)c(Cl)cc32)cc1N1CCN(C)CC1` [Example 11 of application EP-1170288, 6-chloro-5-fluoro-N-[4-methoxy-3-(4-methyl-1-piperazinyl)phenyl]-1-indolinecarboxamide], in experiment [1], the “ACh, percentage area beneath the curve (%AbC ± S.E.M.)” value is “+15.1 ± 12.3 %AbC”; the “DA, percentage area beneath the curve (%AbC ± S.E.M.)” value is “+19.5 ± 4.9 %AbC”; the “change in extracellular concentration of ACh (in words)” value is on record as “no change”; the “change in extracellular concentration of DA (in words)” value was “very modest increase”. Further, in experiment [1], the “change in extracellular concentration of NA (in words)” value is reported as “very modest increase” and the “NA, percentage area beneath the curve (%AbC ± S.E.M.)” value is reported as “+39.8 ± 6.7 %AbC”. Further, the Ki at 5-HT2C receptors was 39.8 nM.
